Experimental data as given in patent US20120220528A1, “SYSTEMS AND METHODS FOR THERAPY OF KIDNEY DISEASE AND/OR HEART FAILURE USING CHIMERIC NATRIURETIC PEPTIDES” (MEDTRONIC, INC., priority 2011, published 2012).
“Also recorded” adds a separate entry of the source. Bridges are numbered along the chain shown (N, C = ends). Where no end group is shown, it is not given here.

Key:
healthy canines [1] = experiment: Healthy canines: diuresis and natriuresis after subcutaneous bolus; type: in vivo, canine; settings: SQ bolus, BNP 25 μg/kg
healthy canines [2] = experiment: Healthy canines: diuresis and natriuresis with IV infusion; type: in vivo, canine; settings: one-hour IV infusion; CD-NP 100 ng/kg·min, BNP 30 ng/kg·min
[3] = test system: Human renal medullary epithelial cells; experiment: In vitro cell-based assay of cGMP production; settings: 9000, 3000, 300, 30, 10 and 0 nM, 15 minutes, ELISA

Substance	sodium excretion (natriuresis) following subcutaneous bolus (healthy canines [1]; CD-NP 27 μg/kg)	urine flow following subcutaneous bolus vs baseline (healthy canines [1]; CD-NP 27 μg/kg (equimolar))	sodium excretion (healthy canines [2])	urine flow from baseline (healthy canines [2])	stimulation of cGMP production [3]
BNP: commercial preparation of Natrecor; recombinant form of the 32 amino acid human B-type natriuretic peptide, comparative natriuretic peptide	increase	increase; also recorded: statistically significant	increasing trend	increasing trend	–
ANP: human atrial natriuretic peptide (Phoenix Pharmaceuticals), control; ligand to the NPR-A receptor (SLRRSSCFGGRMDRIGAQSGLGCNSFRY; disulfide 7-23 (inferred); ends not checked; UniProt P01160 124-151, looked up)	–	–	–	–	significantly less
